The text below walks through data of patent US20140005163A1 (NOVARTIS AG, priority 2010, published 2014).

One series deals with T1, PI3K alpha (Homo sapiens, UniProt P42336).
T1 construct: p85(iSH2) fusion partner (see partner chain) (N); His tag (C); made in house; host or cells: baculovirus; Tn5 (Trichoplusia ni) or TiniPro insect cells
Nature of the series: PI3K alpha kinase assay (Kinase-Glo luminescence). The format is biochemical. In a few lines:
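Compounds are titrated at 8 concentrations and mixed with PI3Kα protein (EMV B1075, 10 nM) in phosphatidylinositol (10 μg/mL). ATP at 1 μM starts the 60-minute room-temperature reaction, which is stopped with Kinase-Glo before luminescence reading. Four-parameter curve fitting gives IC50.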
Background: In Kinase-Glo more light means more ATP remaining.

A further series can be described thus: Solubility at pH 6.8. The conditions noted are these: pH 6.8, aqueous buffer, thermodynamic from solid; read-out: solubility. The format is physicochemical. In a few lines: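 Following the procedure of Zhou et al. (2007), compound solubility was determined at pH 6.8.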
The test system of series [1] is PKB Ser473 phosphorylation in Rat1-myr-HA-p110 beta cells. In words: Reverse protein array assay, PKB Ser473 phosphorylation in Rat1-myr-p110 beta cells. The format is cell-based. The conditions noted are these: 0.5 h, pAkt Ser473, 30 minutes incubation, read-out: p-PKB IC50. In a few lines: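 After at least 20 h of culture, the p110 isoform-transfected Rat1 lines receive compound in an 8-step dilution series, keeping DMSO at 0.2%, for 30 minutes. Cells are then lysed and lysates arrayed on chips for fluorescence detection of Ser473-phosphorylated PKB.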

pIC50: −log10 of the molar value. ≈ marks a conversion by molar mass, not a printed value.

T1 sequence (P42336 with tags, fused parts or gaps limits assumed): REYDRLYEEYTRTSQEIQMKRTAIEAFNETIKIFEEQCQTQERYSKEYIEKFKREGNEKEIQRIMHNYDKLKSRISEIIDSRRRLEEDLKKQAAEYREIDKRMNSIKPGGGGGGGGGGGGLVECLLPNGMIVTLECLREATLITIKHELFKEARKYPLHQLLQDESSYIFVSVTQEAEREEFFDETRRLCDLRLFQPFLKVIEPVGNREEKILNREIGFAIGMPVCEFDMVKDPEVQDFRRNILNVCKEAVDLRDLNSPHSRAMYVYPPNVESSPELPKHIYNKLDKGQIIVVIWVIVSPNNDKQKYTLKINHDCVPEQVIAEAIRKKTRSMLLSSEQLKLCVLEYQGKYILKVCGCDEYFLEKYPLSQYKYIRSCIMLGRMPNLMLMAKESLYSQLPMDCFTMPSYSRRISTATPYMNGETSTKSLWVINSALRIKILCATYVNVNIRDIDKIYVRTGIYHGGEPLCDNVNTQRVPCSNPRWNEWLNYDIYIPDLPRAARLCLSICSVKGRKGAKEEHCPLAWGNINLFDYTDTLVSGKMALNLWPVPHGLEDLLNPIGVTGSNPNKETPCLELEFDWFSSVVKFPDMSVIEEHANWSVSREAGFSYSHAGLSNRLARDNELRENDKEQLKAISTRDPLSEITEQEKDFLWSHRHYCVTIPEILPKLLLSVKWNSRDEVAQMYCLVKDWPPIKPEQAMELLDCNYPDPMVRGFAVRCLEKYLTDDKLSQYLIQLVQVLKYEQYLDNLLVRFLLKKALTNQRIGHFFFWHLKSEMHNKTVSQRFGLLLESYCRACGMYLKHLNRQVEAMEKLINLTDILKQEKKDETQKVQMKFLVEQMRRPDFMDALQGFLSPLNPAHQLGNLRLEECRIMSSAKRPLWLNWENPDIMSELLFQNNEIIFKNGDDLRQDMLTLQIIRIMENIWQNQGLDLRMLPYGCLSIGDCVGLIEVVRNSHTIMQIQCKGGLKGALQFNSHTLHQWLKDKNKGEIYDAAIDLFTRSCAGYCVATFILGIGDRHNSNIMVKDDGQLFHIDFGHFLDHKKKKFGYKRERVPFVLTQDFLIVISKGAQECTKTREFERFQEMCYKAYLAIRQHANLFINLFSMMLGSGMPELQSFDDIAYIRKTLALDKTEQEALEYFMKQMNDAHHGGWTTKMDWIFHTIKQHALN

For the compound `COc1ccc(-c2ccc3ncc4c(c3c2)n(-c2cc(C)nn2C)c(=O)n4C)cc1OC` [Example 1.4, 8-(3,4-Dimethoxy-phenyl)-1-(2,5-dimethyl-2H-pyrazol-3-yl)-3-methyl-1,3-dihydro-imidazo[4,5-c]quinolin-2-one], the pIC50 at PI3K alpha is 7.41; in series [1] it was 6.80. Moreover, the solubility in “Solubility at pH 6.8” stood at 4 µg/mL (≈ 9.31 µM).
Consider `COc1ccc(-c2ccc3ncc4c(c3c2)n(-c2cn(C(C)C)nc2C)c(=O)n4C)cc1OC` [Example 1.5, 8-(3,4-Dimethoxy-phenyl)-1-(1-isopropyl-3-methyl-1H-pyrazol-4-yl)-3-methyl-1,3-dihydro-imidazo[4,5-c]quinolin-2-one], for which the results for the pIC50 (on PI3K alpha; in series [1]) were 8.00 and 7.64, respectively. In addition, the solubility in the series “Solubility at pH 6.8” was 5 µg/mL (≈ 10.9 µM).
The like results for `CCn1cc(-n2c(=O)n(C)c3cnc4ccc(-c5ccc(OC)c(OC)c5)cc4c32)c(C)n1` [Example 1.6, 8-(3,4-Dimethoxy-phenyl)-1-(1-ethyl-3-methyl-1H-pyrazol-4-yl)-3-methyl-1,3-dihydro-imidazo[4,5-c]quinolin-2-one] were, in that order, 8.10, 7.66 and 65 µg/mL (≈ 147 µM).
Regarding `COc1ccc(-c2ccc3ncc4c(c3c2)n(-c2cn(C)nc2C)c(=O)n4C)cn1` [Example 2.5, 1-(1,3-Dimethyl-1H-pyrazol-4-yl)-8-(6-methoxy-pyridin-3-yl)-3-methyl-1,3-dihydro-imidazo[4,5-c]quinolin-2-one], the pIC50 on PI3K alpha was 7.77; in series [1] it was 7.74. In “Solubility at pH 6.8”, the solubility is 13 µg/mL (≈ 32.5 µM).
The like results for `CCn1cc(-n2c(=O)n(C)c3cnc4ccc(-c5ccc(OC)nc5)cc4c32)c(C)n1` [Example 2.7, 1-(1-Ethyl-3-methyl-1H-pyrazol-4-yl)-8-(6-methoxy-pyridin-3-yl)-3-methyl-1,3-dihydro-imidazo[4,5-c]quinolin-2-one] were, in that order, 7.62, 7.42 and 3 µg/mL (≈ 7.24 µM).
The like results for `CCOc1ccc(-c2ccc3ncc4c(c3c2)n(-c2c(C)nn(C)c2C)c(=O)n4C)cn1` [Example 3.3, 8-(6-Ethoxy-pyridin-3-yl)-3-methyl-1-(1,3,5-trimethyl-1H-pyrazol-4-yl)-1,3-dihydro-imidazo[4,5-c]quinolin-2-one] were, in that order, 6.84, 6.26 and 104 µg/mL (≈ 243 µM).
On to `CCOc1ccc(-c2ccc3ncc4c(c3c2)n(-c2cn(C(C)C)nc2C)c(=O)n4C)cn1` [Example 3.7, 8-(6-Ethoxy-pyridin-3-yl)-1-(1-isopropyl-3-methyl-1H-pyrazol-4-yl)-3-methyl-1,3-dihydro-imidazo[4,5-c]quinolin-2-one], for which the pIC50 at PI3K alpha was 7.21; in series [1], 7.29. Also, the solubility in the series “Solubility at pH 6.8” worked out at 3 µg/mL (≈ 6.78 µM).
For `CCOc1ccc(-c2ccc3ncc4c(c3c2)n(-c2cn(CC(=O)N(C)C)nc2C)c(=O)n4C)cn1` [Example 3.9, 2-{4-[8-(6-Ethoxy-pyridin-3-yl)-3-methyl-2-oxo-2,3-dihydro-imidazo[4,5-c]quinolin-1-yl]-3-methyl-pyrazol-1-yl}-N,N-dimethyl-acetamide], in that order: 7.68, 7.72 and 65 µg/mL (≈ 134 µM).
For `Cc1nn(C)cc1-n1c(=O)n(C)c2cnc3ccc(-c4ccc(N(C)C)nc4)cc3c21` [Example 4.5, 8-(6-Dimethylamino-pyridin-3-yl)-1-(1,3-dimethyl-1H-pyrazol-4-yl)-3-methyl-1,3-dihydro-imidazo[4,5-c]quinolin-2-one], in that order: 7.64, 7.77 and 7 µg/mL (≈ 16.9 µM).
Regarding `Cc1cc(-n2c(=O)n(C)c3cnc4ccc(-c5ccc(N(C)C)nc5)cc4c32)n(C)n1` [Example 4.6, 8-(6-Dimethylamino-pyridin-3-yl)-1-(2,5-dimethyl-2H-pyrazol-3-yl)-3-methyl-1,3-dihydro-imidazo[4,5-c]quinolin-2-one], the pIC50 on PI3K alpha is 7.32; in series [1], 7.14. Further, in “Solubility at pH 6.8”, the solubility amounted to 6 µg/mL (≈ 14.5 µM).
In the case of `Cc1nn(C)cc1-n1c(=O)n(C)c2cnc3ccc(-c4ccc(N5CCC5)nc4)cc3c21` [Example 5.1, 8-(6-Azetidin-1-yl-pyridin-3-yl)-1-(1,3-dimethyl-1H-pyrazol-4-yl)-3-methyl-1,3-dihydro-imidazo[4,5-c]quinolin-2-one], the negative-log IC50 (pIC50) was 7.52 at PI3K alpha and 8.10 in series [1]. Besides, in the series “Solubility at pH 6.8”, the solubility amounted to 3 µg/mL (≈ 7.05 µM).
The like results for `Cc1nn(C)cc1-n1c(=O)n(C)c2cnc3ccc(-c4ccc(C(N)=O)nc4)cc3c21` [Example 14, 5-[1-(1,3-Dimethyl-1H-pyrazol-4-yl)-3-methyl-2-oxo-2,3-dihydro-1H-imidazo[4,5-c]quinolin-8-yl]-pyridine-2-carboxylic acid amide] were, in that order, 7.74, 7.74 and 53 µg/mL (≈ 128 µM).
Turning to `CNC(=O)c1ccc(-c2ccc3ncc4c(c3c2)n(-c2c(C)nn(C)c2C)c(=O)n4C)cn1` [Example 15.2, 5-[3-Methyl-2-oxo-1-(1,3,5-trimethyl-1H-pyrazo1-4-yl)-2,3-dihydro-1H-imidazo[4,5-c]quinolin-8-yl]-pyridine-2-carboxylic acid methylamide], the pIC50 on PI3K alpha was 6.60; in series [1], 6.28. In addition, in the series “Solubility at pH 6.8”, the solubility stood at 71 µg/mL (≈ 161 µM).
For `Cc1nn(C)c(C)c1-n1c(=O)n(C)c2cnc3ccc(-c4ccc(CO)nc4)cc3c21` [Example 16.4, 8-(6-Hydroxymethyl-pyridin-3-yl)-3-methyl-1-(1,3,5-trimethyl-1H-pyrazol-4-yl)-1,3-dihydro-imidazo[4,5-c]quinolin-2-one], the pIC50 at PI3K alpha was 6.74. The solubility in “Solubility at pH 6.8” is above 414 µg/mL.
Take `Cn1cc(-n2c(=O)n(C)c3cnc4ccc(-c5ccc(CO)nc5)cc4c32)c(Cl)n1` [Example 16.5, 1-(3-chloro-1-methyl-1H-pyrazol-4-yl)-8-(6-hydroxymethyl-pyridin-3-yl)-3-methyl-1,3-dihydro-imidazo[4,5-c]quinolin-2-one]: the pIC50 is 8.52 on PI3K alpha and 8.00 in series [1]. The solubility in “Solubility at pH 6.8” is 15 µg/mL (≈ 35.6 µM).
`Cn1nccc1-n1c(=O)n(C)c2cnc3ccc(-c4ccc(NCCO)nc4)cc3c21` [Example 21.1, 8-[6-(2-Hydroxy-ethylamino)-pyridin-3-yl]-3-methyl-1-(2-methyl-2H-pyrazol-3-yl)-1,3-dihydro-imidazo[4,5-c]quinolin-2-one]: the results for the pIC50 (at PI3K alpha; in series [1]) were 6.57 and 6.76, respectively. In addition, the solubility in “Solubility at pH 6.8” was above 415 µg/mL.
Consider `Cc1cncc(-c2ccc3ncc4c(c3c2)n(-c2cn(C)nc2C)c(=O)n4C)c1` [Example 24, 1-(1,3-Dimethyl-1H-pyrazol-4-yl)-3-methyl-8-(5-methyl-pyridin-3-yl)-1,3-dihydro-imidazo[4,5-c]quinolin-2-one], for which the negative-log IC50 (pIC50) at PI3K alpha is 8.00; in series [1], 6.91. Also, in “Solubility at pH 6.8”, the solubility is 25 µg/mL (≈ 65 µM).
The like results for `CCOc1ccc(-c2ccc3ncc4c(c3c2)n(-c2c(C)nn(C)c2C)c(=O)n4C)cc1OCC` [Example 27.2, 8-(3,4-Diethoxy-phenyl)-3-methyl-1-(1,3,5-trimethyl-1H-pyrazol-4-yl)-1,3-dihydro-imidazo[4,5-c]quinolin-2-one] were, in that order, 7.32, 6.41 and 4 µg/mL (≈ 8.48 µM).
As for `CCOc1ccc(-c2ccc3ncc4c(c3c2)n(-c2cn(CC)nc2C)c(=O)n4C)cc1OC` [Example 29.1, 8-(4-Ethoxy-3-methoxy-phenyl)-1-(1-ethyl-3-methyl-1H-pyrazol-4-yl)-3-methyl-1,3-dihydro-imidazo[4,5-c]quinolin-2-one], the pIC50 at PI3K alpha was 7.62; in series [1] it was 7.03. The solubility in “Solubility at pH 6.8” was 3 µg/mL (≈ 6.56 µM).
On to `Cc1nn(C)cc1-n1c(=O)n(C)c2cnc3ccc(-c4cnc5ccccc5c4)cc3c21` [Example 38, 1-(1,3-Dimethyl-1H-pyrazol-4-yl)-3-methyl-8-quinolin-3-yl-1,3-dihydro-imidazo[4,5-c]quinolin-2-one], for which the pIC50 on PI3K alpha is 8.10; in series [1] it was 8.05. Further, the solubility in “Solubility at pH 6.8” came to 13 µg/mL (≈ 30.9 µM).
For `Cc1nn(C)cc1-n1c(=O)n(C)c2cnc3ccc(-c4cccc(S(=O)(=O)N5CCCC5)c4)cc3c21` [Example 44, 1-(1,3-Dimethyl-1H-pyrazol-4-yl)-3-methyl-8-[3-(pyrrolidine-1-sulfonyl)-phenyl]-1,3-dihydro-imidazo[4,5-c]quinolin-2-one], in that order: 7.15, 7.38 and 8 µg/mL (≈ 15.9 µM).
For `CCn1cc(-n2c(=O)n(C)c3cnc4ccc(-c5cncc(N)c5)cc4c32)c(C)n1` [Example 45.2, 8-(5-Amino-pyridin-3-yl)-1-(1-ethyl-3-methyl-1H-pyrazol-4-yl)-3-methyl-1,3-dihydro-imidazo[4,5-c]quinolin-2-one], in that order: 7.13, 7.44 and 10 µg/mL (≈ 25 µM).
Regarding `Cc1nn(C(C)C)cc1-n1c(=O)n(C)c2cnc3ccc(-c4cncc(N)c4)cc3c21` [Example 45.3, 8-(5-Amino-pyridin-3-yl)-1-(1-isopropyl-3-methyl-1H-pyrazol-4-yl)-3-methyl-1,3-dihydro-imidazo[4,5-c]quinolin-2-one], the negative logarithm of the IC50 (pIC50) at PI3K alpha was 7.12; in series [1], 7.44. Also, the solubility in the series “Solubility at pH 6.8” amounted to 4 µg/mL (≈ 9.67 µM).

A word on the pIC50: it is the IC50 on a negative log10 scale, so that one unit is a factor of ten. The term solubility denotes how much of the substance goes into solution per volume.
